Reference: PMC6365485 (British Journal of Pharmacology, 2019)

Assays:
[1] = target: T1, human recombinant EP1 receptor (Homo sapiens, UniProt P34995); test: [3H]PGE2 displacement, membranes; assay type: binding
T1 sequence (P34995 1-402): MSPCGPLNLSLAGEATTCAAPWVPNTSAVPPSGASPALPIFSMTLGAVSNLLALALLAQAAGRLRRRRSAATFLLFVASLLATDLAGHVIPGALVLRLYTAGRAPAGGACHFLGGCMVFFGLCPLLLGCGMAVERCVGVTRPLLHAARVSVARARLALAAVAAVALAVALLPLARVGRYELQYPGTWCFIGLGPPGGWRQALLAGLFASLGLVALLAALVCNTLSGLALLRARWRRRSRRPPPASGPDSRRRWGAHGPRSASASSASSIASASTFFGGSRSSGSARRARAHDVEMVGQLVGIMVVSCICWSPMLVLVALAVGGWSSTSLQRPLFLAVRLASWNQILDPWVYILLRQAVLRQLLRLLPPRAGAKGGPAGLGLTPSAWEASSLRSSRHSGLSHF

[2] = target: T2, human recombinant DP1 receptor (Homo sapiens, UniProt Q13258); test: [3H]PGD2 displacement, membranes; assay type: binding
T2 sequence (Q13258 1-359): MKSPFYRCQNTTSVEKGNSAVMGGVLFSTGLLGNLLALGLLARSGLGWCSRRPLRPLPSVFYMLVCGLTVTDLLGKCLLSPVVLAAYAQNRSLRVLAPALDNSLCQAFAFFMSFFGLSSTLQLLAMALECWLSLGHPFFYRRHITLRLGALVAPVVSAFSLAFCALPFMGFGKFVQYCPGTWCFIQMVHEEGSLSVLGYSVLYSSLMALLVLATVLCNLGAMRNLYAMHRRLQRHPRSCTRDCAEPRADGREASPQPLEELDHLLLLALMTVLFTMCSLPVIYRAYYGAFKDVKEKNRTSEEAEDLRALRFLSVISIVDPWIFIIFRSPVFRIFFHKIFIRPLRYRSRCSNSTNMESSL

| SMILES | Ki [1] [nM] | Ki [2] [nM] |
| --- | --- | --- |
| CCCCC[C@H](O)/C=C/[C@H]1[C@H](O)CC(=O)[C@@H]1C/C=C\CCCC(=O)O [PGE2] | 50.1 |  |
| CCCCC[C@H](O)/C=C/[C@H]1C(=O)C[C@H](O)[C@@H]1C/C=C\CCCC(=O)O [PGD2] |  | 2.51 |
